Experimental data from patent US7998754B2, “In vitro method for the simultaneous detection and identification of antibiotics of different classes and corresponding diagnostic kit” (Unisensor S.A., priority 2005, dated 2011).
Read-outs that look alike come from different tables or passages of the source.

Experiments:
β-lactame receptor (RSA) [1] = biological target: T1, β-lactame receptor (RSA) (Staphylococcus aureus, UniProt P18357); type: binding; settings: milk; for Intensity ratio of parameter/control zone: at the detection limit concentration; for Detection limit: Concentration: β-lactames, positive when ratio test/control <= 1
T1 construct: made in house
T1 sequence (P18357 331-585 limits assumed): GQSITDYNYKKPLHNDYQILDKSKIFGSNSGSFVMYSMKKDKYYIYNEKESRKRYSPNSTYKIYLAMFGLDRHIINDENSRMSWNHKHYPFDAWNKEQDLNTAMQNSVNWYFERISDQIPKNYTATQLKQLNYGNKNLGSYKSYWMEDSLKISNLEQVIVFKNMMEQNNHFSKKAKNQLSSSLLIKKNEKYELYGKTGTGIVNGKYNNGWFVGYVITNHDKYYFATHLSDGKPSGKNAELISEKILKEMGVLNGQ
Description: (§1) For the detection of β-lactames, the reactive mixture comprises the specific receptor for recognising β-lactames, its specific antibody and a preparation of protein A conjugated with colloidal gold. For the detection of tetracyclines, the reactive mixture comprises the receptor of the tetracyclines, its specific antibody, a specific fragment of DNA conjugated with biotin and a preparation of protein A conjugated with colloidal gold.
(§2) The β-lactame receptor is obtained by the method described by Golemi-Kotra et al.^(6) The unpurified receptor is filtered on a Millex HV membrane (Millipore, Inc., USA) before it is stored at 4° C. in the presence of glycerol at 50% v/v.
(§3) This mixture is either prepared as required or lyophilisated for 20 hours. The Recovery System
(§4) The recovery system comprises a nitrocellulose membrane on which are fixed, at distinct points, the elements capable of forming a complex with the recognition molecules of the reactive mixture. These elements are: • for the “beta” signal (for β-lactame), an antibiotic, preferably of penicillin or cephalosporine type, fixed to a molecule with no particular reactivity to protein A, biotin or avidine. […] An egg-white avidine is preferably used.
(§5) In the case of a detection of two parameters, the preparations of β-lactoglobulin and avidine will be deposited on each side of the control line. For example, the β-lactoglobulin conjugate already prepared will be deposited below the control line and the neutralized avidine solution will be deposited above the control line (FIG. 1).
(§6) 200 μL of cold milk are incubated at 50° C. in the presence of 50 μl of the reagents prepared and/or lyophilisated as above. After 3 minutes of incubation at 50° C., the above-described recovery element is immersed in the solution. The final interpretation is made after 3 minutes of incubation by means of an optical dipstick reader available at Matest (Germany);
(§7) As a general rule, when the ratio of the intensities of the concerned test signal relative to the control signal is less than or equal to 1, the sample is considered positive for the parameter (compound) concerned.

β-lactame receptor (RSA) [2] = biological target: T1, β-lactame receptor (RSA); type: binding; settings: milk; for Ratio test/control: at the detection limit concentration; for Concentration detection limit: β-lactames, three-parameter test
Experimental: This mixture is prepared either as required or lyophilisated for 20 hours. The Recovery System
The other capture zones are identical but differently positioned, as in FIG. 2.
A single control zone serves as a reference for the three markers.
200 μL of cold milk are incubated at 50° C. in the presence of 50 μl of the reagents prepared and/or lyophilisated as above. After 3 minutes of incubation at 50° C., the above-described recovery element is immersed in the solution. The final interpretation is made after 3 minutes of incubation by means of an optical dipstick reader available at Matest (Germany).
As a general rule, if the ratio of the intensities of the concerned test signal relative to the control signal is less than or equal to 1, the sample is considered as positive for the parameter (compound) concerned.

[3] = cited from earlier work; for MRL/EU: maximum residue level, European Union
[4] = tested on: tetracycline receptor (TetR); test: Example 1 dipstick test in milk, "tetra" capture zone (format 1); type: binding, E. Coli
Description: In addition, the recovery system is a specific and biotinylated fragment of DNA that can be fixed on a molecule of avidine attached to a nitrocellulose membrane. […] In this case, the fragment of DNA forms a complex with the receptor and a signal generated by the gold particles attached to the receptor appears.
as §1, §2
The DNA fragment is obtained at Eurogentec SA, Belgium according to the sequence and preparation described in patent application WO-A-03/048770. In this precise case, the DNA fragment is not fixed to a capture point on a nitrocellulose membrane but it is directly incorporated into the reactive mixture. This fragment will be recovered in testo by means of its biotinylated end on avidine fixed to a capture point (see below).
as §3, §4, §5, §6, §7

| Compound | Intensity ratio of parameter/control zone (β-lactame receptor (RSA) [1]) | Detection limit: Concentration (β-lactame receptor (RSA) [1]) [ppb] | Ratio test/control (β-lactame receptor (RSA) [2]) | Concentration detection limit (β-lactame receptor (RSA) [2]) [ppb] | Safe level/US [3] [ppb] | MRL/EU [3] [ppb] | also measured |
| --- | --- | --- | --- | --- | --- | --- | --- |
| CC1(C)S[C@@H]2[C@H](NC(=O)[C@H](N)c3ccc(O)cc3)C(=O)N2[C@H]1C(=O)O [Amoxicillin] | 0.4 | 4 | 0.4 | 4 | 10 | 4 |  |
| CC1(C)S[C@@H]2[C@H](NC(=O)[C@H](N)c3ccccc3)C(=O)N2[C@H]1C(=O)O [Ampicillin] |  | 4 |  | 4 |  |  | Intensity: zone B (β-lactame receptor (RSA) [1]; Ampi 1 ppb): 380; Intensity: zone B (β-lactame receptor (RSA) [1]; Ampi 2 ppb): 250; Intensity: zone B (β-lactame receptor (RSA) [1]; Ampi 3 ppb): 155; Intensity: zone B (β-lactame receptor (RSA) [1]; Ampi 4 ppb + Tetra 75 ppb together): 122; Intensity: zone B (β-lactame receptor (RSA) [1]; Ampi 4 ppb): 105; Intensity: zone B (β-lactame receptor (RSA) [1]; Ampi 5 ppb): 55; Intensity: zone B (β-lactame receptor (RSA) [1]; Ampi 10 ppb): 25; Intensity: zone T ([4]; Ampi 1 ppb): 380; Intensity: zone T ([4]; Ampi 2 ppb): 405; Intensity: zone T ([4]; Ampi 3 ppb): 408; Intensity: zone T ([4]; Ampi 4 ppb): 386; Intensity: zone T ([4]; Ampi 5 ppb): 397; Intensity: zone T ([4]; Ampi 10 ppb): 414 |
| CC1(C)S[C@@H]2[C@H](NC(=O)Cc3ccccc3)C(=O)N2[C@H]1C(=O)O [Benzylpenicillin] |  | 2 |  | 2 |  |  |  |
| CO/N=C(\C(=O)N[C@@H]1C(=O)N2C(C(=O)O)=C(CSC(=O)c3ccco3)CS[C@H]12)c1csc(N)n1 [Ceftiofur] | 0.5 | 10 | 0.5 | 10 | 50 | 100 |  |
| CC(=O)OCC1=C(C(=O)O)N2C(=O)[C@@H](NC(=O)CSc3ccncc3)[C@H]2SC1 [Cephapyrin] | 0.3 | 8 | 0.3 | 8 | 20 | 60 |  |
| CN(C)[C@@H]1C(O)=C(C(N)=O)C(=O)[C@@]2(O)C(O)=C3C(=O)c4c(O)ccc(Cl)c4[C@@](C)(O)[C@H]3C[C@@H]12 [Chlortetracycline] |  |  |  |  | 300 | 100 |  |
| C[C@H]1c2cccc(O)c2C(=O)C2=C(O)[C@]3(O)C(=O)C(C(N)=O)=C(O)[C@@H](N(C)C)[C@@H]3[C@@H](O)[C@@H]21 [Doxycycline] |  |  |  |  | 300 | 100 |  |
| CN(C)[C@@H]1C(O)=C(C(N)=O)C(=O)[C@@]2(O)C(O)=C3C(=O)c4c(O)cccc4[C@@](C)(O)[C@H]3[C@H](O)[C@@H]12 [Oxytetracycline] |  |  |  |  | 300 | 100 |  |
| CN(C)[C@@H]1C(O)=C(C(N)=O)C(=O)[C@@]2(O)C(O)=C3C(=O)c4c(O)cccc4[C@@](C)(O)[C@H]3C[C@@H]12 [Tetracycline] |  |  |  |  | 300 | 100 |  |
| Cloxacycline | 0.5 | 10 | 0.5 | 10 | 10 | 30 |  |
